Test results reported in ChEMBL document CHEMBL1201862, “PubChem BioAssay data set” (2004).
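Tested at 5 concentrations; 48 h exposure; 96-well plates; endpoints linearly interpolated, else capped at highest concentration. GI50 marks 50% less growth.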 The source made the active and inactive calls. Rule as the data show it: active = GI50 up to about 1.1 µM and inactive = higher.

Key:
Assay in all cases: NCI anticancer screen, dose series, 48 h
A498 = test system: A498
COLO 205 = test system: COLO 205
EKVX = test system: EKVX
HCT-15 = test system: HCT-15
KM12 = test system: KM12
MOLT-4 = test system: MOLT-4
Malme-3M = test system: Malme-3M
NCI-H23 = test system: NCI-H23
OVCAR-3 = test system: OVCAR-3
OVCAR-4 = test system: OVCAR-4
OVCAR-8 = test system: OVCAR-8
SK-MEL-28 = test system: SK-MEL-28
SK-MEL-5 = test system: SK-MEL-5
SK-OV-3 = test system: SK-OV-3
SN12C = test system: SN12C
SW-620 = test system: SW-620
UO-31 = test system: UO-31
DU-145 = test system: DU-145
PC-3 = test system: PC-3

Row | SMILES | GI50 (A498) | GI50 (COLO 205) | GI50 (EKVX) | GI50 (HCT-15) [µM] | GI50 (KM12) | GI50 (MOLT-4) | GI50 (Malme-3M) | GI50 (NCI-H23) | GI50 (OVCAR-3) | GI50 (OVCAR-4) | GI50 (OVCAR-8) | GI50 (SK-MEL-28) | GI50 (SK-MEL-5) | GI50 (SK-OV-3) | GI50 (SN12C) | GI50 (SW-620) | GI50 (UO-31) | GI50 (DU-145) | GI50 (PC-3)
1 | CCOP1(=O)C=C(C)C(=C(Cl)Cl)C(C)=C1 (configuration not stated) | 19.2 µM (inactive) | 11.7 µM (inactive) | 18.9 µM (inactive) | 8.79 | 1.71 µM (inactive) | 5.64 µM (inactive) | 17.1 µM (inactive) | 15.8 µM (inactive) | 20.6 µM (inactive) | 15.2 µM (inactive) | 20.7 µM (inactive) | 22.5 µM (inactive) | 5.9 µM (inactive) | 35.1 µM (inactive) | 15 µM (inactive) | 7.45 µM (inactive) | 13.9 µM (inactive) |  | 
2 | CC(C)N(C(=O)C12C3C4C5C3C1(C#N)C5C42)C(C)C (configuration not stated) | > 100 µM (inactive) | > 100 µM (inactive) | > 100 µM (inactive) | > 100 | > 100 µM (inactive) | > 100 µM (inactive) | > 100 µM (inactive) | > 100 µM (inactive) | > 100 µM (inactive) | > 100 µM (inactive) | > 100 µM (inactive) | > 100 µM (inactive) | > 100 µM (inactive) | > 100 µM (inactive) | > 100 µM (inactive) | 11.6 µM (inactive) | > 100 µM (inactive) |  | 
3 | CN(C)CC(/C(Cc1ccccc1)=N\NC(=O)C[n+]1ccccc1)c1ccccc1 (configuration not stated) | > 100 µM (inactive) | > 100 µM (inactive) | > 100 µM (inactive) | > 100 | > 100 µM (inactive) | > 100 µM (inactive) | > 100 µM (inactive) | > 100 µM (inactive) | > 100 µM (inactive) | > 100 µM (inactive) | 35.1 µM (inactive) | > 100 µM (inactive) | > 100 µM (inactive) | > 100 µM (inactive) | > 100 µM (inactive) |  | > 100 µM (inactive) |  | 
4 | S=C1/C(=N/c2ccccc2)N(c2ccccc2)/C(=N\c2ccccn2)N1c1ccccc1 | 14.5 µM (inactive) | 10.8 µM (inactive) | 13.5 µM (inactive) | 8.18 | 12.9 µM (inactive) | > 100 µM (inactive) | 16.9 µM (inactive) | 12.3 µM (inactive) |  | 14.6 µM (inactive) | 14.5 µM (inactive) | 16.8 µM (inactive) | 13.9 µM (inactive) | 19.9 µM (inactive) | 8.41 µM (inactive) | 14 µM (inactive) | 13.3 µM (inactive) | 19.8 µM (inactive) | 12.8 µM (inactive)
5 | CCOC(=O)CCC(NC(=O)c1ccc(/N=C/c2nc3ccccc3nc2-c2ccccc2)cc1)C(=O)OCC (configuration not stated) | > 100 µM (inactive) | > 100 µM (inactive) | > 100 µM (inactive) | > 100 | > 100 µM (inactive) | > 100 µM (inactive) | > 100 µM (inactive) | > 100 µM (inactive) | > 100 µM (inactive) | > 100 µM (inactive) | 13.9 µM (inactive) | > 100 µM (inactive) | > 100 µM (inactive) | > 100 µM (inactive) | 79.1 µM (inactive) | > 100 µM (inactive) | > 100 µM (inactive) |  | 
6 | COC1=CC(=O)NCCN1 | > 100 µM (inactive) | 41.8 µM (inactive) | > 100 µM (inactive) | 52.2 | > 100 µM (inactive) | > 100 µM (inactive) | > 100 µM (inactive) | > 100 µM (inactive) | > 100 µM (inactive) | > 100 µM (inactive) | > 100 µM (inactive) | > 100 µM (inactive) | > 100 µM (inactive) | > 100 µM (inactive) | > 100 µM (inactive) | 18.2 µM (inactive) | > 100 µM (inactive) |  | 
7 | COc1cc(/C=C2/C(=O)N(C(=O)OC(C)C)C(Cc3cc(OC)c(OC)c(C)c3OC)C(=O)N2Cc2ccccc2)c(OC)c(C)c1OC (configuration not stated) | 73.1 µM (inactive) | 27.2 µM (inactive) | > 100 µM (inactive) |  | 54.2 µM (inactive) | 3.33 µM (inactive) | 22.2 µM (inactive) | 13.2 µM (inactive) | 12.7 µM (inactive) | 20.9 µM (inactive) | 28.2 µM (inactive) | > 100 µM (inactive) | 14.4 µM (inactive) | 91.2 µM (inactive) | 54.8 µM (inactive) | 14.8 µM (inactive) | 9.06 µM (inactive) |  | 
8 | CC(C)CCCC(C)[C@H]1CCC2[C@@H]3CCC4Nc5c(cnn5-c5ccccc5)C[C@]4(C)C3CC[C@@]21C (some centres not stated) | 89.5 µM (inactive) | 8.75 µM (inactive) | 7.52 µM (inactive) | 23.3 | 29.6 µM (inactive) | 3.32 µM (inactive) | 28.7 µM (inactive) | 26.1 µM (inactive) | 32.5 µM (inactive) | 25.6 µM (inactive) | 61 µM (inactive) |  | 85.1 µM (inactive) | 48.5 µM (inactive) | 83 µM (inactive) | 21.5 µM (inactive) | 15 µM (inactive) |  | 
9 | COc1ccc2cc3c4cc(OC)c(OC)cc4ccn3c2c1 | > 100 µM (inactive) | > 100 µM (inactive) | > 100 µM (inactive) |  | > 100 µM (inactive) | > 100 µM (inactive) | > 100 µM (inactive) | > 100 µM (inactive) |  | > 100 µM (inactive) | > 100 µM (inactive) | > 100 µM (inactive) | > 100 µM (inactive) | > 100 µM (inactive) | > 100 µM (inactive) | > 100 µM (inactive) | > 100 µM (inactive) |  | 
10 | COc1ccc2c(c1)CC1Cc3cc(OC)c(OC)cc3CN1CC2 (configuration not stated) | 28.6 µM (inactive) | 23.7 µM (inactive) | 32.8 µM (inactive) | 44.7 | 34.7 µM (inactive) | 24 µM (inactive) | 40.2 µM (inactive) | 46.5 µM (inactive) | 72.4 µM (inactive) | 38.5 µM (inactive) | 33.8 µM (inactive) | 42.8 µM (inactive) | 21.3 µM (inactive) | 71.6 µM (inactive) |  | 47.1 µM (inactive) | 15.3 µM (inactive) | 36.6 µM (inactive) | 37.4 µM (inactive)
11 | Cc1c(C)c2ccc3oc4ccccc4c3c2oc1=O | > 100 µM (inactive) | > 100 µM (inactive) | > 100 µM (inactive) | > 100 | > 100 µM (inactive) | > 100 µM (inactive) | > 100 µM (inactive) | > 100 µM (inactive) | > 100 µM (inactive) | > 100 µM (inactive) | > 100 µM (inactive) | > 100 µM (inactive) | > 100 µM (inactive) | > 100 µM (inactive) | > 100 µM (inactive) | > 100 µM (inactive) | > 100 µM (inactive) |  | 
12 | COc1ccc2nc3cccc(C(=O)NCCN(C)C)c3nc2c1 | 1.55 µM (inactive) | 1.75 µM (inactive) | 3.06 µM (inactive) | 1.43 | 1.3 µM (inactive) | 0.187 µM (active) | 0.571 µM (active) | 1.41 µM (inactive) | 2.08 µM (inactive) | 1.63 µM (inactive) | 1.46 µM (inactive) | 2.25 µM (inactive) | 2.04 µM (inactive) | 4.09 µM (inactive) | 1.39 µM (inactive) | 0.573 µM (active) | 2.45 µM (inactive) |  | 
13 | CCOCN1COCN/C1=N/C#N | > 100 µM (inactive) | 28.3 µM (inactive) | > 100 µM (inactive) | 58.5 | > 100 µM (inactive) | > 100 µM (inactive) | > 100 µM (inactive) | > 100 µM (inactive) | > 100 µM (inactive) | > 100 µM (inactive) | > 100 µM (inactive) | > 100 µM (inactive) | > 100 µM (inactive) | > 100 µM (inactive) | > 100 µM (inactive) | 17.9 µM (inactive) | > 100 µM (inactive) |  | 
14 | N#Cc1nn(-c2ccc(Cl)cc2)c(=N)c2c(N)n3nc(-c4ccccc4)cc3nc12 | 1 µM (active) | 1 µM (active) | 1 µM (active) | 1 | < 0.01 µM (active) | 0.294 µM (active) | 1 µM (active) | 0.83 µM (active) | 0.804 µM (active) | 0.857 µM (active) | 0.64 µM (active) | 1 µM (active) | 0.809 µM (active) | 0.472 µM (active) | 1 µM (active) | > 100 µM (inactive) |  |  | 
15 | CCC(=O)OC1CCn2c1nc1c2C(=O)C(C)=C(NC(C)=O)C1=O (configuration not stated) | 18.4 µM (inactive) | 3.52 µM (inactive) | 2.03 µM (inactive) |  | 1.92 µM (inactive) | 1.41 µM (inactive) | 1.61 µM (inactive) | 1.76 µM (inactive) | 0.236 µM (active) | 0.198 µM (active) | 0.641 µM (active) | 2.22 µM (inactive) | 1.83 µM (inactive) | 3.87 µM (inactive) | 1.79 µM (inactive) | 1.49 µM (inactive) | 2.22 µM (inactive) |  | 
16 | N#Cc1c(C(N)=O)ncn1Cc1ccccc1 | > 100 µM (inactive) | > 100 µM (inactive) | > 100 µM (inactive) | > 100 | > 100 µM (inactive) | > 100 µM (inactive) | > 100 µM (inactive) | > 100 µM (inactive) | > 100 µM (inactive) | > 100 µM (inactive) | > 100 µM (inactive) |  | > 100 µM (inactive) | > 100 µM (inactive) | > 100 µM (inactive) | > 100 µM (inactive) | > 100 µM (inactive) |  | 
17 | COc1cc(C2C(C#N)=C(N)OC3=C2CCS(=O)(=O)c2ccc(C)cc23)cc(OC)c1OC (configuration not stated) | > 100 µM (inactive) | > 100 µM (inactive) |  | > 100 | > 100 µM (inactive) |  | > 100 µM (inactive) | > 100 µM (inactive) | > 100 µM (inactive) | > 100 µM (inactive) | > 100 µM (inactive) | > 100 µM (inactive) | > 100 µM (inactive) |  | > 100 µM (inactive) | > 100 µM (inactive) | > 100 µM (inactive) | > 100 µM (inactive) | > 100 µM (inactive)
